Laboratory results: the NIST ThermoML archive (doi:10.1021/je900550v)

Settings: 101.33 kPa, Liquid; for speed of sound: Pulse-echo method; for mass density: Vibrating tube method

C[NH2+]CCO.O=C[O-] [2-hydroxy-N-methylethanaminium formate]
Settings	mass density [kg/m3]	speed of sound [m/s]	viscosity [mPa·s]
278.15 K	1139.41	1854.7	–
278.4 K	1139.26	1854.2	–
278.65 K	1139.13	1853.7	–
278.9 K	1138.99	1853.2	–
279.15 K	1138.85	1852.7	–
279.4 K	1138.71	1852.2	–
279.65 K	1138.58	1851.7	–
279.9 K	1138.44	1851.2	–
280.15 K	1138.3	1850.7	–
280.4 K	1138.16	1850.2	–
280.65 K	1138.02	1849.7	–
280.9 K	1137.88	1849.2	–
281.15 K	1137.73	1848.7	–
281.4 K	1137.6	1848.2	–
281.65 K	1137.46	1847.7	–
281.9 K	1137.32	1847.2	–
282.15 K	1137.18	1846.8	–
282.4 K	1137.04	1846.3	–
282.65 K	1136.9	1845.8	–
282.9 K	1136.77	1845.3	–
283.15 K	1136.62	1844.8	–
283.4 K	1136.49	1844.3	–
283.65 K	1136.35	1843.8	–
283.9 K	1136.21	1843.3	–
284.15 K	1136.07	1842.8	–
284.4 K	1135.93	1842.3	–
284.65 K	1135.79	1841.8	–
284.9 K	1135.65	1841.3	–
285.15 K	1135.51	1840.8	–
285.4 K	1135.37	1840.3	–
285.65 K	1135.23	1839.8	–
285.9 K	1135.09	1839.3	–
286.15 K	1134.95	1838.9	–
286.4 K	1134.81	1838.4	–
286.65 K	1134.67	1837.9	–
286.9 K	1134.53	1837.4	–
287.15 K	1134.39	1836.9	–
287.4 K	1134.25	1836.4	–
287.65 K	1134.11	1835.9	–
287.9 K	1133.97	1835.4	–
288.15 K	1133.84	1834.9	34.2
288.4 K	1133.69	1834.4	–
288.65 K	1133.55	1833.9	–
288.9 K	1133.41	1833.4	–
289.15 K	1133.28	1833	–
289.4 K	1133.13	1832.5	–
289.65 K	1133	1832	–
289.9 K	1132.86	1831.5	–
290.15 K	1132.72	1831	–
290.4 K	1132.58	1830.5	–
290.65 K	1132.44	1830	30.15
290.9 K	1132.3	1829.5	–
291.15 K	1132.16	1829	–
291.4 K	1132.01	1828.5	–
291.65 K	1131.88	1828	–
291.9 K	1131.74	1827.5	–
292.15 K	1131.6	1827	–
292.4 K	1131.46	1826.6	–
292.65 K	1131.32	1826.1	–
292.9 K	1131.18	1825.6	–
293.15 K	1131.04	1825.1	26.05
293.4 K	1130.9	1824.6	–
293.65 K	1130.76	1824.1	–
293.9 K	1130.62	1823.6	–
294.15 K	1130.48	1823.2	–
294.4 K	1130.34	1822.7	–
294.65 K	1130.2	1822.2	–
294.9 K	1130.06	1821.7	–
295.15 K	1129.92	1821.2	–
295.4 K	1129.78	1820.7	–
295.65 K	1129.64	1820.2	23.22
295.9 K	1129.5	1819.7	–
296.15 K	1129.37	1819.2	–
296.4 K	1129.23	1818.7	–
296.65 K	1129.08	1818.2	–
296.9 K	1128.94	1817.7	–
297.15 K	1128.8	1817.3	–
297.4 K	1128.66	1816.8	–
297.65 K	1128.52	1816.3	–
297.9 K	1128.38	1815.8	–
298.15 K	1128.25	1815.3	20.27
298.4 K	1128.11	1814.8	–
298.65 K	1127.96	1814.3	–
298.9 K	1127.83	1813.8	–
299.15 K	1127.69	1813.4	–
299.4 K	1127.55	1812.9	–
299.65 K	1127.41	1812.4	–
299.9 K	1127.27	1811.9	–
300.15 K	1127.13	1811.4	–
300.4 K	1126.99	1810.9	–
300.65 K	1126.85	1810.4	18.37
300.9 K	1126.71	1809.9	–
301.15 K	1126.57	1809.5	–
301.4 K	1126.43	1809	–
301.65 K	1126.29	1808.5	–
301.9 K	1126.15	1808	–
302.15 K	1126.02	1807.5	–
302.4 K	1125.87	1807	–
302.65 K	1125.73	1806.5	–
302.9 K	1125.59	1806	–
303.15 K	1125.45	1805.6	16.4
303.4 K	1125.32	1805.1	–
303.65 K	1125.18	1804.6	–
303.9 K	1125.04	1804.1	–
304.15 K	1124.89	1803.6	–
304.4 K	1124.76	1803.2	–
304.65 K	1124.62	1802.7	–
304.91 K	1124.48	1802.2	–
305.15 K	1124.34	1801.7	15.1
305.4 K	1124.2	1801.2	–
305.65 K	1124.06	1800.7	–
305.9 K	1123.92	1800.2	–
306.15 K	1123.78	1799.7	–
306.4 K	1123.64	1799.3	–
306.65 K	1123.5	1798.8	–
306.9 K	1123.36	1798.3	–
307.15 K	1123.22	1797.8	–
307.4 K	1123.08	1797.3	–
307.65 K	1122.94	1796.8	–
307.9 K	1122.8	1796.3	–
